Data as given in PubChem BioAssay (NCI).
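Each compound was tested at five concentrations against cells in 96-well plates for 48 hours. The concentration for 50% growth inhibition is given as GI50. TGI: concentration producing complete growth inhibition.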

Key:
Assay in all cases: inhibition of tumour cell growth, NCI panel, 48 h
CAKI-1 renal = system: CAKI-1 renal
HOP-62 NSCLC = system: HOP-62 NSCLC
LOX IMVI melanoma = system: LOX IMVI melanoma
M14 melanoma = system: M14 melanoma
MCF7 breast = system: MCF7 breast
SF-295 CNS = system: SF-295 CNS
SNB-19 CNS = system: SNB-19 CNS
T-47D breast = system: T-47D breast
U251 CNS = system: U251 CNS
NCI-H23 lung = system: NCI-H23 lung

Compound | TGI (CAKI-1 renal) | TGI (HOP-62 NSCLC) | TGI (LOX IMVI melanoma) | TGI (M14 melanoma) | TGI (MCF7 breast) | TGI (SF-295 CNS) | TGI (SNB-19 CNS) | TGI (T-47D breast) | TGI (U251 CNS) | TGI (NCI-H23 lung) | GI50 (CAKI-1 renal) | GI50 (HOP-62 NSCLC) | GI50 (LOX IMVI melanoma) | GI50 (M14 melanoma) | GI50 (MCF7 breast) | GI50 (NCI-H23 lung) | GI50 (SF-295 CNS) | GI50 (SNB-19 CNS) | GI50 (T-47D breast) | GI50 (U251 CNS)
O=C(OCc1ccccc1)N1CCNCCNCCN(C(=O)OCc2ccccc2)CCNCC1 | 73.8 µM | > 100 µM | 30.8 µM | 30.4 µM | 32 µM | 33.7 µM | > 100 µM | 41 µM | 33.7 µM | – | – | – | – | – | – | – | – | – | – | –
Clc1cc(Cl)ncn1 | > 100 µM | > 100 µM | > 100 µM | > 100 µM | > 100 µM | > 100 µM | > 100 µM | > 100 µM | > 100 µM | > 100 µM | – | – | – | – | – | – | – | – | – | –
Cc1nc(Nc2ccccc2Cl)sc1C(=O)CC(=O)C(N)=O | > 100 µM | > 100 µM | > 100 µM | > 100 µM | > 100 µM | > 100 µM | > 100 µM | > 100 µM | > 100 µM | > 100 µM | – | – | – | – | – | – | – | – | – | –
C#CCOC(=O)c1ccc(OC(C)=O)cc1 | > 100 µM | > 100 µM | > 100 µM | > 100 µM | > 100 µM | > 100 µM | > 100 µM | > 100 µM | > 100 µM | > 100 µM | – | – | – | – | – | – | – | – | – | –
Cc1ccccc1NC(=O)CC(=O)NNC(Sc1ccccc1)c1cc(N=Nc2ccc(Br)cc2)ccc1O (stereo not drawn) | > 10 µM | > 10 µM | 9.11 µM | 2.63 µM | > 10 µM | > 10 µM | > 10 µM | > 10 µM | > 10 µM | > 10 µM | – | – | – | – | – | – | – | – | – | –
O=c1[nH]nc(Cc2ccc(Cl)cc2)n1/N=C/c1ccc([N+](=O)[O-])o1 | > 39 µM | 24.8 µM | > 24.8 µM | 5.68 µM | > 36.8 µM | 16.2 µM | 33.3 µM | > 77.6 µM | > 34.4 µM | 16.8 µM | – | – | – | – | – | – | – | – | – | –
NC(=O)CN1C=CCC(C(N)=O)=C1 | > 100 µM | > 100 µM | > 100 µM | > 100 µM | > 100 µM | > 100 µM | > 100 µM | > 100 µM | > 100 µM | > 100 µM | – | – | – | – | – | – | – | – | – | –
COc1ccccc1NC(=O)CC(=O)NN | > 100 µM | > 100 µM | > 100 µM | – | > 100 µM | > 100 µM | > 100 µM | > 100 µM | > 100 µM | > 100 µM | – | – | – | – | – | – | – | – | – | –
COc1ccccc1C1C(C#N)=C(N)Oc2n[nH]c(C)c21 (stereo not drawn) | > 100 µM | > 100 µM | > 100 µM | > 100 µM | > 100 µM | > 100 µM | > 100 µM | > 100 µM | > 100 µM | > 100 µM | > 100 µM | > 100 µM | > 100 µM | > 100 µM | > 100 µM | > 100 µM | > 100 µM | > 100 µM | > 100 µM | 92.9 µM
CCOC(=O)CCC(C(=O)OCC)n1nnc2cc(Nc3c(C)[n+]([O-])c4cc(F)c(OCC)cc4[n+]3[O-])ccc21 (stereo not drawn) | > 100 µM | > 100 µM | > 100 µM | > 100 µM | > 100 µM | > 100 µM | > 100 µM | > 100 µM | > 100 µM | > 100 µM | – | – | – | – | – | – | – | – | – | –
Cc1c([C@H](C)[C@@H]2NC[C@@H](C)C[C@H]2O)ccc2c1C[C@H]1[C@H]2CC=C2C[C@@H](O)CC[C@@]21C | > 100 µM | 96.4 µM | 27 µM | 31.4 µM | 31.5 µM | 40.8 µM | 82.3 µM | 53.2 µM | 30.3 µM | 37.9 µM | – | – | – | – | – | – | – | – | – | –
O=c1[nH]c(=O)n(C2OC(CO)C(O)C2O)cc1OCCCc1ccccc1 (stereo not drawn) | > 100 µM | > 100 µM | > 100 µM | > 100 µM | > 100 µM | > 100 µM | > 100 µM | > 100 µM | – | > 100 µM | – | – | – | – | – | – | – | – | – | –
Oc1ccc(-c2nc3ccccc3s2)cc1 | 58.3 µM | > 100 µM | 45 µM | > 100 µM | > 100 µM | > 100 µM | > 100 µM | 70 µM | > 100 µM | 79.1 µM | – | – | – | – | – | – | – | – | – | –
COC(=O)Nc1nc2ccc(NC(=O)c3ccc(I)cc3)cc2[nH]1 | > 100 µM | > 100 µM | > 100 µM | > 100 µM | > 100 µM | > 100 µM | > 100 µM | > 100 µM | > 100 µM | > 100 µM | – | – | – | – | – | – | – | – | – | –
COc1cc2nc(-c3cccs3)nc(Nc3cccc(Cl)c3)c2cc1OC | > 100 µM | 45.3 µM | > 100 µM | > 100 µM | > 100 µM | 69.2 µM | > 100 µM | > 100 µM | > 100 µM | > 100 µM | – | – | – | – | – | – | – | – | – | –
CC(CNC(N)=O)NC(N)=O (stereo not drawn) | > 100 µM | > 100 µM | > 100 µM | > 100 µM | > 100 µM | > 100 µM | > 100 µM | > 100 µM | > 100 µM | > 100 µM | – | – | – | – | – | – | – | – | – | –
O=C(Nc1nn[nH]n1)c1nc(-c2ccccc2)cc(=O)[nH]1 | > 100 µM | > 100 µM | > 100 µM | > 100 µM | > 100 µM | > 100 µM | > 100 µM | > 100 µM | > 100 µM | > 100 µM | – | – | – | – | – | – | – | – | – | –
CC1CCC2(OC1)OC1C(O)C3C4CCC5CC(OC6OC(CO)C(OC7OC(CO)C(O)C(OC8OCC(O)C(O)C8O)C7OC7OC(CO)C(O)C(OC8OC(CO)C(O)C(O)C8O)C7O)C(O)C6O)C(O)CC5(C)C4CCC3(C)C1C2C (stereo not drawn) | 2.68 µM | 3.92 µM | 12.1 µM | 24.9 µM | 4.78 µM | 3.66 µM | 4.34 µM | 10.4 µM | 10.2 µM | 4.41 µM | – | – | – | – | – | – | – | – | – | –
CC(=O)OC[C@H]1On2nnnc2[C@H](OC(C)=O)[C@@H](OC(C)=O)[C@@H]1OC(C)=O | > 100 µM | > 100 µM | > 100 µM | – | > 100 µM | > 100 µM | – | > 100 µM | > 100 µM | > 100 µM | – | – | – | – | – | – | – | – | – | –
COc1ccc2cc(C(C)C(=O)N3C(=O)OCC3(C)C)ccc2c1 (stereo not drawn) | – | > 100 µM | > 100 µM | > 100 µM | > 100 µM | > 100 µM | > 100 µM | > 100 µM | > 100 µM | > 100 µM | – | – | – | – | – | – | – | – | – | –
CCCCCCCCOc1ccc(/C=C/C2=[N+](CCO)CCO2)cc1 | 19.7 µM | 39.8 µM | – | 20 µM | > 100 µM | 16.9 µM | 17.5 µM | 13.2 µM | 8.13 µM | 5.28 µM | – | – | – | – | – | – | – | – | – | –
